Consider 1 molecule from paper PMC8745345, “Hydroxy Pentacyclic Triterpene Acid, Kaempferol, Inhibits the Human 5-Hydroxytryptamine Type 3A Receptor Activity” (International Journal of Molecular Sciences, 2022).

Changes are numbered by the printed parent chain.

Assay [1] addresses T1, human 5-HT3A receptor W63A mutant (Homo sapiens, UniProt P46098, W85A).
T1 sequence (P46098 24-478 W85A): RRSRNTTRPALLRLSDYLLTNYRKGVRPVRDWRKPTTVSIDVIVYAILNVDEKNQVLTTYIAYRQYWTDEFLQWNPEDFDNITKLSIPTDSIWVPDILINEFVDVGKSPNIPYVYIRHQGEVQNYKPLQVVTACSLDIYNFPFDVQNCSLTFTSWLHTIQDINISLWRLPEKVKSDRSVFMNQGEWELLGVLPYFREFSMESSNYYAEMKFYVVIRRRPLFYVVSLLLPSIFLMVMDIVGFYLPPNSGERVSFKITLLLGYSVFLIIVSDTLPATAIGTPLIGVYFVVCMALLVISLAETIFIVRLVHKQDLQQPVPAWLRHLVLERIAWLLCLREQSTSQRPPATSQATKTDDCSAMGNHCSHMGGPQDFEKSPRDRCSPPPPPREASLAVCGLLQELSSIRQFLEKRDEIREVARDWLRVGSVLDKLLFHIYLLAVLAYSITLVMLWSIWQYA
The experiment in a line: Two-electrode voltage clamp, I5-HT inhibition, W63A mutant. It counts as cell-based. Conditions: −80 mV. On the technique in general: In two-electrode clamp one electrode senses voltage and the other passes current.
Description: (§1) Human 5-HT3A receptor cDNA was linearized using restriction enzyme XhoI. In vitro transcription was performed using an mMESSAGE mMACHINE T7 Transcription Kit (Thermo Fisher Scientific, Waltham, MA, USA). The final mRNA product was dissolved in 1X Diethyl Pyrocarbonate (RNase-free water) at a final concentration of 1 μg/μL and kept in a deep-freezer at −80 °C until used.
(§2) Xenopus oocytes were used in this study as cells for expression of human 5-HT3A receptor. All female frogs used in this experiment were obtained from the Korean Xenopus Resource Center for Research (KXRCR000001). […] Xenopus oocytes were extracted during ice incubation state and isolated as single oocytes using collagenase II (2 mg/mL) in OR2 buffer (82.5 mM NaCl, 2 mM KCl, 1 mM MgCl2, 5 mM HEPES, pH 7.4). Isolated oocytes were incubated with ND96 incubation buffer (96 mM NaCl, 2 mM KCl, 1 mM MgCl2, 1.8 mM CaCl2, 5 mM HEPES, 2.5 mM sodium pyruvate, and 50 mg/mL gentamycin, pH 7.4) at 18 °C until the experiment was performed. Human 5-HT3A receptor mRNA was injected into oocytes using a nanoinjector (Drummond Scientific, Broomall, PA, USA) with a mineral-filled 10 μL microdispenser (VWR, Piscataway, NJ, USA).
(§3) To confirm the KAE activity on the human 5-HT3A receptor, a two-electrode voltage clamp (OC-725C; Warner Instruments, Hamden, CT, USA) with a Digitata 1550A was used. For the experiment, induced-inward current was converted to digital data with pClamp 10 software (Axon Instruments, Union City, CA, USA). All experiments were performed at room temperature using an oocyte clamp equipped with Digidata. The membrane holding potential was −80 mV.
(§4) The voltage relationship experiment for confirming the relationship between induce-inward current and voltage, the voltage was varied from −80 mV to +60 mV using a ramp protocol. […] All recording data were analyzed using Clampfit 9.0 (Molecular Devices, San Jose, CA, USA). […]
(§5) All presented experiments were performed at least three times for scientific verification. […] Induced-inward current data were analyzed with SigmaPlot 10.0 software (Systat Software, Inc., San Jose, CA, USA). […]

For assay [2], the target named is T2, human 5-HT3A receptor T154A mutant (Homo sapiens, UniProt P46098, T176A).
T2 sequence (P46098 24-478 T176A): T1 sequence (P46098 24-478 W85A) with A62W, T153A
Description: Two-electrode voltage clamp, I5-HT inhibition, T154A mutant. The settings on record: −80 mV. The class given is cell-based.
Description: as §1, §2, §3, §4, §5

For orientation: IC50 means the concentration at which inhibition is half-maximal. Read a low IC50 as greater potency in that assay. `O=c1c(O)c(-c2ccc(O)cc2)oc2cc(O)cc(O)c12` [KAE, kaempferol]: in assay [1], it took 33.7 ± 5.7 µM to reach half-maximal inhibition (IC50), the Vmax worked out at 76.3 ± 10.7% and the “n (Hill coefficient)” value is 1.3 ± 0.5. In addition, in assay [2], the IC50 was 33.4 ± 7.9 µM, the Vmax came out at 73.5 ± 9.4% and the “n (Hill coefficient)” value turned out to be 1.1 ± 0.4.
